# From PubChem BioAssay (NCI)
#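 Dose response: 5 concentrations. Exposure: 48 h. Format: 96-well plates. Endpoint: linear interpolation; highest concentration if not reached. At the TGI there is no net growth.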
# Assays:
# Assay in all cases: growth of human tumour cells (NCI), 48 h
# [1] = system: 786-0 renal
# [2] = system: A498 renal
# [3] = system: A549 NSCLC
# [4] = system: ACHN renal
# [5] = system: BT-549 breast
# [6] = system: CAKI-1 renal
# [7] = system: CCRF-CEM leukemia
# [8] = system: COLO 205 colon
# [9] = system: DU-145 prostate
# [10] = system: EKVX NSCLC
# [11] = system: HCC-2998 colon
# [12] = system: HCT-116 colon
# [13] = system: HCT-15 colon
# [14] = system: HL-60(TB) leukemia
# [15] = system: HOP-62 NSCLC
# [16] = system: HS 578T breast
# [17] = system: HT29 colon
# [18] = system: IGROV1 ovarian
# [19] = system: K-562 leukemia
# [20] = system: KM12 colon
# [21] = system: LOX IMVI melanoma
# [22] = system: M14 melanoma
# [23] = system: MALME-3M melanoma
# [24] = system: MCF7 breast
# [25] = system: MDA-MB-231 breast
# [26] = system: MDA-MB-435
# [27] = system: MDA-N
# [28] = system: MOLT-4 leukemia
# [29] = system: NCI-H226 lung
# [30] = system: NCI-H23 lung
# [31] = system: NCI-H522 lung
# [32] = system: NCI/ADR-RES ovarian
# [33] = system: OVCAR-3 ovarian
# [34] = system: OVCAR-4 ovarian
# [35] = system: OVCAR-5 ovarian
# [36] = system: OVCAR-8 ovarian
# [37] = system: PC-3 prostate
# [38] = system: RPMI-8226 leukemia
# [39] = system: RXF 393 renal
# [40] = system: SF-268 CNS
# [41] = system: SF-295 CNS
# [42] = system: SF-539 CNS
# [43] = system: SK-MEL-2 melanoma
# [44] = system: SK-MEL-28 melanoma
# [45] = system: SK-MEL-5 melanoma
# [46] = system: SK-OV-3 ovarian
# [47] = system: SN12C renal
# [48] = system: SNB-19 CNS
# [49] = system: SNB-75 CNS
# [50] = system: SR leukemia
# [51] = system: SW-620 colon
# [52] = system: T-47D breast
# [53] = system: TK-10 renal
# [54] = system: U251 CNS
# [55] = system: UACC-257 melanoma
# [56] = system: UACC-62 melanoma
# [57] = system: UO-31 renal
# [58] = system: NCI-H460 lung
smiles,measurement,setting,value
CC(C)/C=N\N1C(N)=C(C#N)C(C#N)(C#N)C1C(C)C (centres undefined),TGI,[1],> 100 µM
same,TGI,[2],> 100 µM
same,TGI,[3],> 100 µM
same,TGI,[4],> 100 µM
same,TGI,[5],92.3 µM
same,TGI,[6],> 100 µM
same,TGI,[7],93.2 µM
same,TGI,[8],> 100 µM
same,TGI,[9],> 100 µM
same,TGI,[10],> 100 µM
same,TGI,[11],> 100 µM
same,TGI,[12],> 100 µM
same,TGI,[13],> 100 µM
same,TGI,[14],91.7 µM
same,TGI,[15],> 100 µM
same,TGI,[16],> 100 µM
same,TGI,[17],80 µM
same,TGI,[18],> 100 µM
same,TGI,[19],> 100 µM
same,TGI,[20],> 100 µM
same,TGI,[21],> 100 µM
same,TGI,[22],> 100 µM
same,TGI,[23],> 100 µM
same,TGI,[24],> 100 µM
same,TGI,[25],> 100 µM
same,TGI,[26],58.6 µM
same,TGI,[27],69.8 µM
same,TGI,[28],> 100 µM
same,TGI,[29],> 100 µM
same,TGI,[30],> 100 µM
same,TGI,[31],> 100 µM
same,TGI,[32],82.8 µM
same,TGI,[33],> 100 µM
same,TGI,[34],> 100 µM
same,TGI,[35],> 100 µM
same,TGI,[36],58.1 µM
same,TGI,[37],> 100 µM
same,TGI,[38],> 100 µM
same,TGI,[39],> 100 µM
same,TGI,[40],> 100 µM
same,TGI,[41],> 100 µM
same,TGI,[42],64.8 µM
same,TGI,[43],> 100 µM
same,TGI,[44],> 100 µM
same,TGI,[45],> 100 µM
same,TGI,[46],> 100 µM
same,TGI,[47],> 100 µM
same,TGI,[48],> 100 µM
same,TGI,[49],> 100 µM
same,TGI,[50],82.9 µM
same,TGI,[51],> 100 µM
same,TGI,[52],> 100 µM
same,TGI,[53],> 100 µM
same,TGI,[54],> 100 µM
same,TGI,[55],> 100 µM
same,TGI,[56],76.5 µM
same,TGI,[57],> 100 µM
Nc1ccc(Cc2ccc(N=Cc3ccc(OCc4cccc(COc5ccc(C=Nc6ccc(Cc7ccc(N)cc7)cc6)cc5)n4)cc3)cc2)cc1,TGI,[1],> 100 µM
same,TGI,[2],> 100 µM
same,TGI,[3],> 100 µM
same,TGI,[4],> 100 µM
same,TGI,[5],> 100 µM
same,TGI,[6],> 100 µM
same,TGI,[7],> 100 µM
same,TGI,[8],> 100 µM
same,TGI,[9],> 100 µM
same,TGI,[10],> 100 µM
same,TGI,[11],> 100 µM
same,TGI,[12],> 100 µM
same,TGI,[13],> 100 µM
same,TGI,[14],> 100 µM
same,TGI,[15],> 100 µM
same,TGI,[16],> 100 µM
same,TGI,[17],> 100 µM
same,TGI,[18],> 100 µM
same,TGI,[19],> 100 µM
same,TGI,[20],> 100 µM
same,TGI,[21],> 100 µM
same,TGI,[22],> 100 µM
same,TGI,[23],> 100 µM
same,TGI,[24],> 100 µM
same,TGI,[25],> 100 µM
same,TGI,[26],> 100 µM
same,TGI,[27],> 100 µM
same,TGI,[28],> 100 µM
same,TGI,[29],> 100 µM
same,TGI,[30],> 100 µM
same,TGI,[58],> 100 µM
same,TGI,[31],> 100 µM
same,TGI,[32],> 100 µM
same,TGI,[33],> 100 µM
same,TGI,[34],> 100 µM
same,TGI,[35],> 100 µM
same,TGI,[36],> 100 µM
same,TGI,[37],> 100 µM
same,TGI,[38],> 100 µM
same,TGI,[39],68 µM
same,TGI,[40],> 100 µM
same,TGI,[41],> 100 µM
same,TGI,[42],26.6 µM
same,TGI,[43],> 100 µM
same,TGI,[44],> 100 µM
same,TGI,[45],> 100 µM
same,TGI,[47],> 100 µM
same,TGI,[48],> 100 µM
same,TGI,[49],39.7 µM
same,TGI,[50],> 100 µM
same,TGI,[51],> 100 µM
same,TGI,[52],> 100 µM
same,TGI,[53],> 100 µM
same,TGI,[54],> 100 µM
same,TGI,[55],> 100 µM
same,TGI,[56],> 100 µM
same,TGI,[57],> 100 µM
